Consider nine compounds from PubChem BioAssay AID1963832 (Molecular Pharmacology Branch, DTP, NCI, 2024).

The term viability, T/C denotes the ratio of treated to control. What is called IC50 is the point on the concentration scale where inhibition reaches its midpoint.

“And” between values parts separate entries of the source, which are not always exact repeats. Identical values can stand only once.

For this assay, the system named is 885724-159-R-J1-PDC complex spheroid viability. Briefly: Anticancer human tumor 885724-159-R-J1-PDC patient-derived pancreatic adenocarcinoma cell line growth inhibition [POLQ]. The settings on record: for viability, T/C: stronger effect = lower value. The procedure: Multicellular complex tumor spheroid response to Polymerase (POL) inhibitors (novobiocin, ART-558, RP6685) in combination with a variety of drugs and investigational agents in selected tumor cell lines
The POL inhibitors (novobiocin, ART-558, and RP6685) were evaluated both individually and in combination with standard of care and investigational anticancer small molecules within a complex spheroid model of solid tumors. . Complex spheroids include a stromal component modeled by human endothelial cells (HUVEC) and fibroblasts modeled by human mesenchymal stem cells (MSCs). The concentration ranges selected for each drug and investigational agent were based upon clinically achievable concentrations if the clinical Cmax of the agent was known.
Compounds. The drugs and investigational agents: novobiocin (NSC847541), ART-558 (NSC835418), RP-6685 (NSC848927), peposertib (NSC802822), ceralasertib (NSC780249), elimusertib (NSC800525), camonsertib (NSC841442), AZD-1390 (NSC803789), olaparib (NSC753686), talazoparib (NSC767125), rucaparib (NSC756644), sotorasib (NSC818433), MRTX-1133 (NSC836407), SN-38 (NSC673596), topotecan (NSC609699), epotoside (NSC141540), doxorubicin (NSC123127), gemcitabine (NSC613327), 5-fluorouracil (NSC19893), paclitaxel (NSC125973), vemurafenib (NSC761431), MSA-2 (NSC828583), SN-011 (NSC837082), adavosertib (NSC754352), prexasertib (NSC758257), carboplatin (NSC241240) and oxaliplatin (NSC266046), were obtained from the National Cancer Institute (NCI) Developmental Therapeutics Program Chemical Repository (21). The FDA-approved anticancer drug set is available from the Developmental Therapeutics Program at https://dtp.cancer.gov/organization/dscb/obtaining/. […] The stock solutions were prepared in dimethyl sulfoxide (DMSO, Sigma-Aldrich, St. Louis, MO, cat. D2650), except for the platinum compounds which were prepared in saline (Quality Biological, Gaithersburg, MD, cat. 114-055-101), at 800-fold the tested concentration and stored at -70 degrees C prior to their use. All drugs and investigational agents were tested over a range starting from a high concentration at or near the clinical Cmax and decreasing in half-log increments. If the clinical Cmax for an agent had not been determined, the highest concentration tested was 10 microM, except for SN-38, which was tested at a high concentration of 1 microM.
Cell Culture. All cells were maintained in an incubator at 37 degrees C and 5% CO2 with 95% humidity. The PDC lines were cultured according to standard operating procedures established by the NCI PDMR (https://pdmr.cancer.gov). Table 3 of the manuscript, lists the cell lines along with the number of the three cell types plated to form the mct-spheroids and media for tumor cell growth. After thawing, all PDC lines, except 997537-175-T-J1-PDC and 415267-285-R-J2-PDC, were cultured in Matrigel-coated flasks prepared with a working solution of 1X Ham's F-12 nutrient mix, without supplementation (Thermo Fisher Scientific, cat. 11765054), 100 U/mL penicillin-streptomycin (Thermo Fisher Scientific, cat. 15140122), and 2.5% Matrigel (Corning Inc., Corning, NY, cat. 354248) for the first three passages. The two PDC lines 997537-175-T-J1-PDC and 415267-285-R-J2-PDC were cultured on uncoated flasks. The 857933-349-R-J2-PDC line was cultured in 6C/Colon 1B media containing advanced DMEM/F-12 (Thermo Fisher Scientific, cat. 12634028), 10 mM HEPES (Thermo Fisher Scientific, cat. 15630080), 1X GlutaMAX supplement (Thermo Fisher Scientific, cat. 35050061), 0.1 mg/mL primocin (InvivoGen, San Diego, CA, cat. ant-pm-2), 10% defined fetal bovine serum, heat inactivated (HyClone Laboratories Inc., Logan, UT, cat. SH30070.03HI), 50% L-WRN conditioned media (ATCC, cat. CRL-3276), 1.25 mM N-Acetyl-L-cysteine (Sigma-Aldrich, cat. A9165), 10 mM nicotinamide (Sigma-Aldrich, cat. N0636), 1X B-27 supplement (Thermo Fisher Scientific, cat. 17504044), 1X N-2 supplement (Thermo Fisher Scientific, cat. […]
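Also: spheroids exposed to compounds for 7 days.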

For the compound `C#Cc1c(F)ccc2cc(O)cc(-c3ncc4c(N5CC6CCC(C5)N6)nc(OCC56CCCN5CC(F)C6)nc4c3F)c12` (stereo not drawn), the viability, T/C runs as follows: (compound 0.0316 µM) 106% and 94.3% and 96.4%; (compound 0.1 µM) 99.8% and 92.7% and 89.8%; (compound 0.316 µM) 85.4% and 94.8% and 91.8%; (compound 1 µM) 67.7% and 67.8% and 78.2%; (compound 3.16 µM) 38.5% and 45.1% and 45.6%; (compound 10 µM) 20.5% and 24.2% and 20.4%. The IC50 (curve of compound) is 2.02 µM and 2.37 µM and 2.71 µM.

Consider `C=CC(=O)N1CCN(c2nc(=O)n(-c3c(C)ccnc3C(C)C)c3nc(-c4c(O)cccc4F)c(F)cc23)C(C)C1` (stereo not drawn), for which the viability, T/C runs as follows: (compound 0.0316 µM) 101% and 99.6% and 109%; (compound 0.1 µM) 87.9% and 97.3% and 91.8%; (compound 0.316 µM) 95.6% and 105% and 106%; (compound 1 µM) 98.9% and 116% and 108%; (compound 3.16 µM) 105% and 94.4% and 114%; (compound 10 µM) 90.5% and 92.3% and 86.1%. Moreover, the half-maximal inhibitory concentration (IC50) (curve of compound) is > 10 µM.

As to `CC(C)n1c(=O)n(C)c2cnc3cc(F)c(-c4ccc(OCCCN5CCCCC5)nc4)cc3c21`, the viability, T/C by setting is: (compound 0.0316 µM) 94.5% and 97.2% and 114%; (compound 0.1 µM) 99.6% and 106% and 103%; (compound 0.316 µM) 98.5% and 110% and 99.5%; (compound 1 µM) 102% and 97.6% and 97.8%; (compound 3.16 µM) 93.2% and 94.7% and 105%; (compound 10 µM) 67% and 74.3% and 92.4%. The 50% inhibitory concentration (IC50) (curve of compound) is > 10 µM.

Regarding `CC1COCCN1c1cc(C2(O)CC3CCC(C2)O3)c2cnn(-c3ccn[nH]3)c2n1` (stereo not drawn), the viability, T/C was 74.4% and 70.9% and 67.4% (compound 0.0316 µM); 52.9% and 50.4% (2×) (compound 0.1 µM); 48.7% and 37.5% and 44.3% (compound 0.316 µM); 41.8% and 37.1% and 40.4% (compound 1 µM); 37.3% and 33.5% and 35.4% (compound 3.16 µM); 28.7% and 26.5% and 27.9% (compound 10 µM). Besides, the IC50 (curve of compound) was 0.226 µM and 0.106 µM and 0.156 µM.

As to `CCc1cc2c(N3CCc4c(cc(Cn5ccnc5)cc4-c4cn(C)nc4C(F)(F)F)C3=O)cc(C)nc2c(OC)n1`, the viability, T/C was 78.8% and 91% and 78.9% (compound 0.0316 µM); 81.9% and 91.9% and 92.2% (compound 0.1 µM); 79.6% and 85.4% and 85.2% (compound 0.316 µM); 81.4% and 83.5% and 75.8% (compound 1 µM); 76.3% and 76.6% and 80.9% (compound 3.16 µM); 72.1% and 69.1% and 62.2% (compound 10 µM). Besides, the IC50 (curve of compound) was > 10 µM.

For `CCc1cc2c(N3CCc4c(cc(Cn5ccnc5)cc4-c4cn(C)nc4C(F)(F)F)C3=O)ccnc2c(OC)n1`, the viability, T/C was 93.9% and 86.6% and 89.7% (compound 0.0316 µM); 80.4% and 79.6% and 85% (compound 0.1 µM); 87.7% and 80.6% and 84.8% (compound 0.316 µM); 72.1% and 82.8% and 82.3% (compound 1 µM); 76.9% and 72.9% and 80% (compound 3.16 µM); 64.6% and 72.9% and 65% (compound 10 µM). In addition, the IC50 (curve of compound) was > 10 µM.

`COc1cc2cc(C(=O)CCC(=O)O)sc2cc1OC`: the viability, T/C by setting is: (compound 0.0316 µM) 102% and 90.8% and 94.2%; (compound 0.1 µM) 96.9% and 97.3% and 92%; (compound 0.316 µM) 98.9% and 97.8% and 108%; (compound 1 µM) 96.4% and 105% and 95.9%; (compound 3.16 µM) 103% and 99% and 107%; (compound 10 µM) 94.9% and 89% and 90.3%. Besides, the IC50 (curve of compound) is > 10 µM.

As to `O=C(Nc1ccc(O)c(NS(=O)(=O)c2ccc(F)cc2)c1)c1ccc(-c2ccccc2)cc1`, the viability, T/C is 98% and 103% and 91.6% (compound 0.0316 µM); 107% and 100% and 93.8% (compound 0.1 µM); 101% and 88.4% and 88.6% (compound 0.316 µM); 100% and 110% and 97.2% (compound 1 µM); 112% and 118% and 108% (compound 3.16 µM); 117% and 97.2% and 76% (compound 10 µM). Besides, the IC50 (curve of compound) was > 10 µM.

For `O=C(c1cc(Cc2n[nH]c(=O)c3ccccc23)ccc1F)N1CCN(C(=O)C2CC2)CC1` + COC1C(OC(N)=O)C(O)C(Oc2ccc3c(O)c(NC(=O)c4ccc(O)c(CC=C(C)C)c4)c(=O)oc3c2C)OC1(C)C, the IC50 was > 10 µM (curve of first compound, second compound 0.0316 µM); > 10 µM (curve of first compound, second compound 0.1 µM); > 10 µM (curve of first compound, second compound 0.316 µM); > 10 µM (curve of first compound, second compound 1 µM); > 10 µM (curve of first compound, second compound 3.16 µM); > 10 µM (curve of first compound, second compound 10 µM). In addition, the viability, T/C (second compound 0.0316 µM, first compound 0.0316 µM) is 101%; the viability, T/C (second compound 0.0316 µM, first compound 0.1 µM) was 93.9%; the viability, T/C (second compound 0.0316 µM, first compound 0.316 µM) was 91.4%; the viability, T/C (second compound 0.0316 µM, first compound 1 µM) was 88.3%; the viability, T/C (second compound 0.0316 µM, first compound 3.16 µM) is 90.8%; the viability, T/C (second compound 0.0316 µM, first compound 10 µM) was 78.9%. Moreover, the viability, T/C runs as follows: (second compound 0.1 µM, first compound 0.0316 µM) 97.4%; (second compound 0.1 µM, first compound 0.1 µM) 85.9%; (second compound 0.1 µM, first compound 0.316 µM) 86%; (second compound 0.1 µM, first compound 1 µM) 88%; (second compound 0.1 µM, first compound 3.16 µM) 86.3%; (second compound 0.1 µM, first compound 10 µM) 83.9%. Moreover, the viability, T/C is 94.8% (second compound 0.316 µM, first compound 0.0316 µM); 91.4% (second compound 0.316 µM, first compound 0.1 µM); 90.3% (second compound 0.316 µM, first compound 0.316 µM); 89.2% (second compound 0.316 µM, first compound 1 µM); 85.5% (second compound 0.316 µM, first compound 3.16 µM); 75.7% (second compound 0.316 µM, first compound 10 µM). In addition, the viability, T/C by setting is: (second compound 1 µM, first compound 0.0316 µM) 85.8%; (second compound 1 µM, first compound 0.1 µM) 89.6%; (second compound 1 µM, first compound 0.316 µM) 89.5%; (second compound 1 µM, first compound 1 µM) 95.8%; (second compound 1 µM, first compound 3.16 µM) 85.4%; (second compound 1 µM, first compound 10 µM) 79.9%. For the same compound, the viability, T/C by setting is: (second compound 3.16 µM, first compound 0.0316 µM) 96.4%; (second compound 3.16 µM, first compound 0.1 µM) 85.7%; (second compound 3.16 µM, first compound 0.316 µM) 104%; (second compound 3.16 µM, first compound 1 µM) 85.5%; (second compound 3.16 µM, first compound 3.16 µM) 92.8%; (second compound 3.16 µM, first compound 10 µM) 79.7%. Also, the viability, T/C (second compound 10 µM, first compound 0.0316 µM) is 96.3%; the viability, T/C (second compound 10 µM, first compound 0.1 µM) was 83%; the viability, T/C (second compound 10 µM, first compound 0.316 µM) was 92.4%; the viability, T/C (second compound 10 µM, first compound 1 µM) was 85.1%; the viability, T/C (second compound 10 µM, first compound 3.16 µM) was 91.1%; the viability, T/C (second compound 10 µM, first compound 10 µM) was 69.9%.
